Assay results published in paper PMC9967789, “Green Drug Discovery: Novel Fragment Space from the Biomass-Derived Molecule Dihydrolevoglucosenone (Cyrene^TM)” (Molecules, 2023).
Values belong to the compound of their own block, whether it stands above or below them.

Experiments:
[1] = Nephelometry solubility in HBSS buffer containing 1% DMSO; format: physicochemical; conditions: for concentration up to which no signs of precipitation or aggregation are shown: in triplo
Description: Nephelometry was performed using NEPHELOstar Plus equipment (BMG LABTECH, Ortenberg, Germany). Kaolin was used as the internal standard, and compounds were added to HBSS buffer as DMSO stock solution to a final concentration of 1% DMSO and a total volume of 200 μL. Precipitation or aggregation was considered significant when average values exceeded three times the standard deviation of the blanks. Blank values were omitted if they exceeded three times the standard deviation of the 24 blanks that were measured on each 96-well plate. All compounds were tested in triplo, and wells of suspected outliers were visually inspected before omitting any outliers. Data were processed in Prism version 8.0 (GraphPad, San Diego, CA, USA).

[2] = Incubation experiment: fragment integrity by LCMS in HBSS buffer/1% DMSO; format: physicochemical; conditions: 10^−4 M in HBSS buffer/1% DMSO
Description: (§1) LCMS studies: A 10 mM solution in DMSO was diluted with HBSS buffer to 0.10 mM. Fragment integrity was measured by LCMS at regular intervals (not shown) up to 20 d in the dark at rt, or after 20 d of freezing. NMR studies: A 10 mM solution in DMSO-d6 was prepared. Fragment integrity was measured with ^1H NMR analysis at regular intervals (not shown) up to 20 d in the dark at rt, or after 20 d of freezing.

[3] = Incubation experiment: fragment integrity by 1H NMR in DMSO-d6; format: physicochemical; conditions: 10^−2 M in DMSO-d6, NMR, three weeks at room temperature or frozen
Description: as §1

[4] = cited from earlier work
[5] = design: method as in doi:10.1021/acssuschemeng.6b02115; conditions: cited from earlier work

concentration up to which no signs of precipitation or aggregation are shown [1]: 1000 µM
Compound: Cc1ccc(COC2CC[C@H]3CO[C@@H]2O3)cc1 (some centres unmarked) [Compound 5c]

concentration at which the precipitate/aggregate starts to form [1]: 10^−3 M
concentration up to which no signs of precipitation or aggregation are shown [1]: 320 µM
Compound: O=C(Nc1ccc(Cl)cc1)OC1CC[C@H]2CO[C@@H]1O2 (some centres unmarked) [Compound 7c]

concentration up to which no signs of precipitation or aggregation are shown [1]: 3200 µM
Compound: Cn1ccc(CNC2CC[C@H]3CO[C@@H]2O3)n1.O=C(O)CCC(=O)O (some centres unmarked) [Compound 8f]

byproduct formed ([2]; three weeks at room temperature): ca. 2.5%
decomposition in DMSO [3]: no significant decomposition
Compound: Clc1cccc(Cl)c1CNC1CC[C@H]2CO[C@@H]1O2 (some centres unmarked) [Compound 8h]

reactivity on incubation in buffer ([2]; three weeks at room temperature or frozen): no or only minor reactivity
decomposition in DMSO [3]: no significant decomposition
Compound: COc1ccc(C(=O)NC2CC[C@H]3CO[C@@H]2O3)cc1 (some centres unmarked) [Compound 9h]

concentration up to which no signs of precipitation or aggregation are shown [1]: 1000 µM
Compound: O=C(NC1CC[C@H]2CO[C@@H]1O2)c1cccs1 (some centres unmarked) [Compound 9p]

concentration up to which no signs of precipitation or aggregation are shown [1]: 320 µM
Compound: O=S(=O)(NC1CC[C@H]2CO[C@@H]1O2)C1CC1 (some centres unmarked) [Compound 12f]

Compound: O=C1CC[C@H]2CO[C@@H]1O2 [Cyrene, dihydrolevoglucosenone]
water solubility [4]: highly water-soluble
toxicity [5]: low toxicity

Compound: C1COC2(CCC3COC2O3)O1 (centres unmarked) [glycol acetal of Cyrene]
miscibility with water [4]: water-miscible

Compound: O=C1CC2COC(C1)O2 (centres unmarked) [iso-Cyrene]
concentration of solutions obtained in water ([4]; water): 10000 µM
